Source: patent US9540392B2, “Thienopyrimidines” (BAYER PHARMA AKTIENGESELLSCHAFT, priority 2012, dated 2017)

Experiments:
[1] = target: T1, human full-length MKNK1 (Homo sapiens, UniProt Q9BUB5, T385D); experiment: MKNK1 kinase assay (TR-FRET); format: biochemical; settings: 10 μM ATP
T1 construct: GST (N); purchased Carna Biosciences 02-145; host or cells: insect cells (baculovirus expression system)
Source text: MKNK1-inhibitory activity of compounds of the present invention was quantified employing the MKNK1 TR-FRET assay as described in the following paragraphs.
A recombinant fusion protein of Glutathione-S-Transferase (GST, N-terminally) and human full-length MKNK1 (amino acids 1-424 and T344D of accession number BAA 19885.1), expressed in insect cells using baculovirus expression system and purified via glutathione sepharose affinity chromatography, was purchased from Carna Biosciences (product no 02-145) and used as enzyme. As substrate for the kinase reaction the biotinylated peptide biotin-Ahx-IKKRKLTRRKSLKG (C-terminus in amide form) was used which can be purchased e.g. form the company Biosyntan (Berlin-Buch, Germany).
For the assay 50 nL of a 100 fold concentrated solution of the test compound in DMSO was pipetted into a black low volume 384 well microtiter plate (Greiner Bio-One, Frickenhausen, Germany), 2 μL of a solution of MKNK1 in aqueous assay buffer [50 mM HEPES pH 7.5, 5 mM MgCl2, 1.0 mM dithiothreitol, 0.005% (v/v) Nonidet-P40 (Sigma)] was added and the mixture was incubated for 15 min at 22° C. to allow pre-binding of the test compounds to the enzyme before the start of the kinase reaction. Then the kinase reaction was started by the addition of 3 μL of a solution of adenosine-tri-phosphate (ATP, 16.7 μM=>final conc. in the 5 μL assay volume is 10 μM) and substrate (0.1 μM=>final conc. in the 5 μL assay volume is 0.06 μM) in assay buffer and the resulting mixture was incubated for a reaction time of 45 min at 22° C. The concentration of MKNK1 was adjusted depending of the activity of the enzyme lot and was chosen appropriate to have the assay in the linear range, typical concentrations were in the range of 0.05 μg/mL. The reaction was stopped by the addition of 5 μL of a solution of TR-FRET detection reagents (5 nM streptavidine-XL665 [Cisbio Bioassays, Codolet, France] and 1 nM anti-ribosomal protein […] (pSer236)-antibody from Invitrogen [#44921G] and 1 nM LANCE EU-W1024 Labeled ProteinG [Perkin-Elmer, product no. AD0071]) in an aqueous EDTA-solution (100 mM EDTA, 0.1% (w/v) bovine serum albumin in 50 mM HEPES pH 7.5).
The resulting mixture was incubated for 1 h at 22° C. to allow the formation of complex between the phosphorylated biotinylated peptide and the detection reagents. Subsequently the amount of phosphorylated substrate was evaluated by measurement of the resonance energy transfer from the Eu-chelate to the streptavidine-XL. Therefore, the fluorescence emissions at 620 nm and 665 nm after excitation at 350 nm were measured in a TR-FRET reader, e.g. a Rubystar (BMG Labtechnologies, Offenburg, Germany) or a Viewlux (Perkin-Elmer). […]

[2] = target: T1, human full-length MKNK1; experiment: MKNK1 kinase high ATP assay (TR-FRET); format: biochemical; settings: 2 mM ATP, after preincubation with MKNK1; read-out: MKNK1 IC50 (MKNK1 high ATP)
How it was run: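 Compound was preincubated 15 min at 22° C. with MKNK1 in 50 mM HEPES pH 7.5, 5 mM MgCl2, 1.0 mM DTT, then the reaction ran 30 min at 22° C. with 2 mM ATP and 0.06 μM biotinylated peptide (final).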

[3] = tested on: 221 kinases other than MKNK; experiment: Kinase selectivity profiling (Merck Millipore KinaseProfiler); format: biochemical; settings: compound at 1 μM
Description: Compounds of the present invention show a higher kinase inhibition selectivity than compounds disclosed in the patent applications WO 2010/023181 A1, WO 2011/104334 A1, WO 2011/104337 A1, WO 2011/104338 A1 and WO 2011/104340 A1 (Boehringer Ingelheim).
The compounds were tested at a concentration of 1 μM using 221 kinases different from MKNK. Kinase activity is expressed as a percentage of the mean kinase activity in the positive control samples. The positive control value is considered to be 100%, and all test samples are measured in relation to this value. For example, a result of 40% means that, in comparison to the positive control sample, 40% kinase activity remains in the presence of the test compound.
Table 6 lists the fraction number of 221 investigated kinases with regard to their remaining activity in the presence of 1 μM of investigated compounds.
The compound described in example 10 is compared to the compound N-[3-(dimethylamino)propyl]-4-[(4-fluoro-2-isopropoxyphenyl)amino]-5-methylthieno[2,3-d]pyrimidine-6-carboxamide which served as reference compound (ref) and has been described in WO 2010/23181, WO 2011/104340 and US 2011/212103.

[4] = tested on: eIF4E Ser209 phosphorylation in A549 cells; experiment: AlphaScreen SureFire eIF4E Ser209 phosphorylation assay in A549 cells with 20% FCS stimulation; format: cell-based; settings: Homo sapiens, read-out: pEIF4e (IC50 of the EIF4e phosphorylation)
Source text: The AlphaScreen SureFire eIF4E Ser209 phoshorylation assay is used to measure the phosphorylation of endogenous eIF4E in cellular lysates. The AlphaScreen SureFire technology allows the detection of phosphorylated proteins in cellular lysates. In this assay, sandwich antibody complexes, which are only formed in the presence of the analyte (p-eIF4E Ser209), are captured by AlphaScreen donor and acceptor beads, bringing them into close proximity. The excitation of the donor bead provokes the release of singlet oxygen molecules that triggers a cascade of energy transfer in the Acceptor beads, resulting in the emission of light at 520-620 nm.
Surefire EIF4e Alphascreen in A549 cells with 20% FCS stimulation
For the assay the AlphaScreen SureFire p-eIF4E Ser209 10K Assay Kit and the AlphaScreen ProteinA Kit (for 10K assay points) both from Perkin Elmer were used. On day one 50.000 A549 cells were plated in a 96-well plate in 100 μL per well in growth medium (DMEM/Hams' F12 with stable Glutamin, 10% FCS) and incubated at 37° C. After attachment of the cells, medium was changed to starving medium (DMEM, 0.1% FCS, without Glucose, with Glutamin, supplemented with 5 g/L Maltose). On day two, test compounds were serially diluted in 50 μL starving medium with a final DMSO concentration of 1% and were added to A549 cells in test plates at a final concentration range from as high 10 μM to as low 10 nM depending on the activities of the tested compounds. Treated cells were incubated at 37° C. for 2 h. 37 ul FCS was added to the wells (=final FCS concentration 20%) for 20 min. Then medium was removed and cells were lysed by adding 50 μL lysis buffer. Plates were then agitated on a plate shaker for 10 min. After 10 min lysis time, 4 μL of the lysate is transferred to a 384 well plate (Proxiplate from Perkin Elmer) and 5 μL Reaction Buffer plus Activation Buffer mix containing AlphaScreen Acceptor beads was added. Plates were sealed with TopSeal-A adhesive film, gently agitated on a plate shaker for 2 hours at room temperature. Afterwards 2 μL Dilution buffer with AlphaScreen Donor beads were added under subdued light and plates were sealed again with TopSeal-A adhesive film and covered with foil. Incubation takes place for further 2 h gently agitation at room temperature. Plates were then measured in an EnVision reader (Perkin Elmer) with the AlphaScreen program. Each data point (compound dilution) was measured as triplicate.
The IC50 values were determined by means of a 4-parameter fit using the company's own software.

T1 sequence (Q9BUB5 1-424 isoform Q9BUB5-2 T344D): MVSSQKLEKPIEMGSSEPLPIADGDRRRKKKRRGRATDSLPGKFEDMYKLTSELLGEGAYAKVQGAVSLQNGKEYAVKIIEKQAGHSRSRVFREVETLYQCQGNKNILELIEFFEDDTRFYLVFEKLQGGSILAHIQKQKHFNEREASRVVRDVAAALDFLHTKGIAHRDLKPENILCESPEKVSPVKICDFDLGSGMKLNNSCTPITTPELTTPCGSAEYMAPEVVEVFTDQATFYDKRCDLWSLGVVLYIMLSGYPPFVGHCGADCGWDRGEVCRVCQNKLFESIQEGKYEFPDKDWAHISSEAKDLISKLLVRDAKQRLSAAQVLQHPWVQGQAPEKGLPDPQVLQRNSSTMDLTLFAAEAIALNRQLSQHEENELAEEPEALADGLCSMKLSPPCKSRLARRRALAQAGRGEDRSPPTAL

SMILES | IC50 [1] [nM] | IC50 [2] [nM] | Fraction number of 221 kinases with remaining activity >30% and <80% [3] | Fraction number of 221 kinases with remaining activity ≦30% [3] | Fraction number of 221 kinases with remaining activity ≧80% [3] | IC50 [4] [nM]
Cc1c(C(=O)NCCCN(C)C)sc2ncnc(Nc3ccc(F)cc3OC(C)C)c12 [Ref, N-[3-(dimethylamino)propyl]-4-[(4-fluoro-2-isopropoxyphenyl)amino]-5-methylthieno[2,3-d]pyrimidine-6-carboxamide, reference compound] | – | 9.8 | 10/221 | 9/221 | 202/221 | 435
CS(=O)(=O)CCCNC(=O)C1CCc2c(sc3ncnc(Nc4ccc5[nH]ncc5c4)c23)C1 (centres unmarked) [Example 4, 4-(1H-Indazol-5-ylamino)-N-[3-(methylsulfonyl)propyl]-5,6,7,8-tetrahydro[1]benzothieno[2,3-d]pyrimidine-7-carboxamide] | 8 | 9 | – | – | – | –
Cc1cccc(CNC(=O)C2CCc3c(sc4ncnc(Nc5ccc6[nH]ncc6c5)c34)C2)c1 (centres unmarked) [Example 20, 4-(1H-indazol-5-ylamino)-N-(3-methylbenzyl)-5,6,7,8-tetrahydro[1] benzothieno [2,3-d]pyrimidine-7-carboxamide] | – | 2 | – | – | – | 344

Other lines, results leading:

IC50 [1] [nM] | IC50 [2] [nM] | Fraction number of 221 kinases with remaining activity >30% and <80% [3] | Fraction number of 221 kinases with remaining activity ≦30% [3] | Fraction number of 221 kinases with remaining activity ≧80% [3] | IC50 [4] [nM] | SMILES
8 | 26 | – | – | – | – | O=C(O)C1CCc2c(sc3ncnc(Nc4ccc5[nH]ncc5c4)c23)C1 (centres unmarked) [Example 2, 4-(1H-Indazol-5-ylamino)-5,6,7,8-tetrahydro[1]benzothieno[2,3-d]pyrimidine-7-carboxylic acid]
– | 12 | 4/221 | 0/221 | 217/221 | – | CN(C)C(=O)C1CCc2c(sc3ncnc(Nc4ccc5[nH]ncc5c4)c23)C1 (centres unmarked) [Example 10, 4-(1H-indazol-5-ylamino)-N,N-dimethyl-5,6,7,8-tetrahydro[1]benzothieno[2,3-d]pyrimidine-7-carboxamide]
2 | 2 | – | – | – | 165 | CCOC(=O)C1CCc2c(sc3ncnc(Nc4cc5cn[nH]c5cc4OC)c23)C1 (centres unmarked) [Example 56, Ethyl 4-[(6-methoxy-1H-indazol-5-yl)amino]-5,6,7,8-tetrahydro[1]benzothieno[2,3-d]pyrimidine-7-carboxylate]
5 | 16 | – | – | – | – | CCOC(=O)C1CCc2c(sc3ncnc(Nc4ccc5[nH]ncc5c4)c23)C1 (centres unmarked) [Example 1, Ethyl 4-(1H-indazol-5-ylamino)-5,6,7,8-tetrahydro[1]benzothieno[2,3-d]pyrimidine-7-carboxylate]
